Test results reported in ChEMBL document CHEMBL6109072, “Discovery of highly potent dual GSPT1/BRD4 degraders with anti-AML activity” (Eur J Med Chem, 2025).
Calls of active or inactive are those of the source. The rule behind the calls is not given here.

Key:
[1] = target: T1, Protein cereblon/Eukaryotic peptide chain release factor GTP-binding subunit ERF3A (Mus musculus) (UniProt Q8C7D2+Q8R050); assay: PROTAC activity at CRBN/GSPT1 in mouse A9 cells assessed as fold increase in translational readthrough activity at 0.8 to 20 uM incubated for 48 hrs by Western blot analysis relative to control; format: cell-based; settings: dose 0.8-20 µM
SU-DHL-1 = assay: Antiproliferative activity against human SU-DHL-1 cells incubated for 3 days by CCK8 assay; format: functional, cell-based; settings: SU-DHL-1, 72 h
[2] = target: T1, Protein cereblon/Eukaryotic peptide chain release factor GTP-binding subunit ERF3A (Mus musculus); assay: PROTAC activity at CRBN/GSPT1 in mouse A9 cells harboring pCDH-BSD-M6/pIRES-GFluc assessed as increase in translational readthrough activity at 0.8 to 20 uM incubated for 48 hrs by Western blot analysis; format: cell-based; settings: dose 0.8-20 µM
[3] = target: T1, Protein cereblon/Eukaryotic peptide chain release factor GTP-binding subunit ERF3A (Mus musculus); assay: PROTAC activity at CRBN/GSPT1 in mouse A9 cells harboring pCDH-BSD-M6/pIRES-GFluc assessed as GSPT1 degradation at 0.8 to 20 uM incubated for 48 hrs by Western blot analysis; format: cell-based; settings: dose 0.8-20 µM
Daudi = assay: Antiproliferative activity against human Daudi cells incubated for 3 days by CCK8 assay; format: functional, cell-based; settings: 72 h
A9 = assay: Effect on eRF1 expression in mouse A9 cells harboring pCDH-BSD-M6/pIRES-GFluc at 0.8 to 20 uM incubated for 48 hrs by Western blot analysis; format: functional, cell-based; settings: dose 0.8-20 µM
KARPAS-299 = assay: Antiproliferative activity against human KARPAS-299 cells incubated for 3 days by CCK8 assay; format: functional, cell-based
NB-4 = assay: Antiproliferative activity against human NB4 cells incubated for 3 days by CCK8 assay; format: functional, cell-based; settings: for IC50: NB-4, 72 h
THP-1 = assay: Antiproliferative activity against human THP-1 cells incubated for 3 days by CCK8 assay; format: functional, cell-based; settings: for IC50: THP-1, 72 h
Raji = assay: Antiproliferative activity against human Raji cells incubated for 3 days by CCK8 assay; format: functional, cell-based; settings: 72 h
[4] = target: T2, Protein cereblon/Bromodomain-containing protein 4 (Homo sapiens, UniProt O60885+Q96SW2); assay: PROTAC activity at CRBN/BRD4 in human MOLM-13 cells assessed as BRD4 degradation at 1 uM incubated for 24 hrs by Western blot analysis; format: cell-based
HL-60 = assay: Antiproliferative activity against human HL-60 cells incubated for 3 days by CCK8 assay; format: functional, cell-based; settings: for IC50: HL-60, 72 h
MOLM-13 [5] = assay: Antiproliferative activity against human MOLM-13 cells incubated for 3 days by CCK8 assay; format: functional, cell-based; settings: for IC50: MOLM-13, 72 h
OCI-AML-3 = assay: Antiproliferative activity against human OCI-AML-3 cells incubated for 3 days by CCK8 assay; format: functional, cell-based
[6] = target: T2, Protein cereblon/Bromodomain-containing protein 4; assay: PROTAC activity at CRBN/BRD4 in human MOLM-13 cells assessed as BRD4 degradation at 100 nM incubated for 6 hrs by Western blot analysis; format: cell-based
MOLM-13 [7] = assay: Antiproliferative activity against human MOLM-13 cells assessed as cell viability at 0.1 uM incubated for 3 days by CCK8 assay relative to control; format: functional; settings: MOLM-13, 72 h, time 3 day, read-out: Activity
[8] = target: Protein cereblon/Eukaryotic peptide chain release factor GTP-binding subunit ERF3A (Homo sapiens, UniProt Q96SW2+P15170); assay: PROTAC activity at CRBN/GSPT1 in human MOLM-13 cells assessed as GSPT1 degradation at 100 nM incubated for 6 hrs by Western blot analysis; format: cell-based
[9] = Toxicity in IL2Rg-null NSG mouse xenografted with human MOLM-13 cells expressing GFP-Fluc assessed as animal death measured after 48 hrs
[10] = Toxicity in IL2Rg-null NSG mouse xenografted with human MOLM-13 cells expressing GFP-Fluc assessed as hemolysis measured after 48 hrs

T1 sequence (Q8C7D2 whole entry, looked up): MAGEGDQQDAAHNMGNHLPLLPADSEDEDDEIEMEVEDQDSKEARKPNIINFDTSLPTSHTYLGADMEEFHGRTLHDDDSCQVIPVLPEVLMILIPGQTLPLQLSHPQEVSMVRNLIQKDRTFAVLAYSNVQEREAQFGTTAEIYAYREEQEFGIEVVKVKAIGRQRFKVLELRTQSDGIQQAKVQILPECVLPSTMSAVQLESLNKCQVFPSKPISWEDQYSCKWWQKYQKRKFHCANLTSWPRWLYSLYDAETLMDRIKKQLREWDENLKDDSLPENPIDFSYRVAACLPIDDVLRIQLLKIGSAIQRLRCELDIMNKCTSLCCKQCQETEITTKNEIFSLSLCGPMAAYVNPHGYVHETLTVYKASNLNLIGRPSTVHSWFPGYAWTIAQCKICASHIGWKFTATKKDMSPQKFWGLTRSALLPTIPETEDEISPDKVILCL
T1 sequence (Q8R050 whole entry, looked up): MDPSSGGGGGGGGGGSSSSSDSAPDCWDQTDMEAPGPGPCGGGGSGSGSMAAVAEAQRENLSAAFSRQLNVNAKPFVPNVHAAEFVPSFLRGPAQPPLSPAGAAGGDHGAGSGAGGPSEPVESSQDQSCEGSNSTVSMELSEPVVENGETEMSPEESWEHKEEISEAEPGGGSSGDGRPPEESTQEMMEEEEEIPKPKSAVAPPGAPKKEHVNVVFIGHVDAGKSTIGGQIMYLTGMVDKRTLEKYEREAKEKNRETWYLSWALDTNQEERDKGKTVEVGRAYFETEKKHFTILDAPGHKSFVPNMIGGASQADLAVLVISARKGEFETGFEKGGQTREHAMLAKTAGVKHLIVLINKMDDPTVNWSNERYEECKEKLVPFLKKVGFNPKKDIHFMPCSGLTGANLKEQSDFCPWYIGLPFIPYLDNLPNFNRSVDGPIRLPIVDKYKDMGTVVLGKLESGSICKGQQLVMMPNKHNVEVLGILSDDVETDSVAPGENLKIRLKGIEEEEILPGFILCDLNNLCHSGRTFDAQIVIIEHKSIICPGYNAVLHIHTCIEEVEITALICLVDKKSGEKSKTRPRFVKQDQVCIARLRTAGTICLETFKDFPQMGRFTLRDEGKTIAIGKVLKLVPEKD
T2 sequence (Q96SW2 whole entry, looked up, other chains not shown): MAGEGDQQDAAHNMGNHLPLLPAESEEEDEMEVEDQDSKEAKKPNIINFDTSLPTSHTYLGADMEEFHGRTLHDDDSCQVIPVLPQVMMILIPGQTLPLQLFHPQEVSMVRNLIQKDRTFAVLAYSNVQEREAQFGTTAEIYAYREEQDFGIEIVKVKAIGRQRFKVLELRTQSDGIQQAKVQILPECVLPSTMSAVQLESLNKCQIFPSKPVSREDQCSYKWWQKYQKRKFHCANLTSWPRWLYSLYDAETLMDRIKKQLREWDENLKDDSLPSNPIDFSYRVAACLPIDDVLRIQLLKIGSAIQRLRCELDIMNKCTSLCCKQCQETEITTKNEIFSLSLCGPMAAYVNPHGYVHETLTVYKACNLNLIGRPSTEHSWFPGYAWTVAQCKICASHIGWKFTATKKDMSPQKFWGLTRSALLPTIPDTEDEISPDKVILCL
Protein cereblon/Eukaryotic peptide chain release factor GTP-binding subunit ERF3A, sequence (P15170 whole entry, looked up): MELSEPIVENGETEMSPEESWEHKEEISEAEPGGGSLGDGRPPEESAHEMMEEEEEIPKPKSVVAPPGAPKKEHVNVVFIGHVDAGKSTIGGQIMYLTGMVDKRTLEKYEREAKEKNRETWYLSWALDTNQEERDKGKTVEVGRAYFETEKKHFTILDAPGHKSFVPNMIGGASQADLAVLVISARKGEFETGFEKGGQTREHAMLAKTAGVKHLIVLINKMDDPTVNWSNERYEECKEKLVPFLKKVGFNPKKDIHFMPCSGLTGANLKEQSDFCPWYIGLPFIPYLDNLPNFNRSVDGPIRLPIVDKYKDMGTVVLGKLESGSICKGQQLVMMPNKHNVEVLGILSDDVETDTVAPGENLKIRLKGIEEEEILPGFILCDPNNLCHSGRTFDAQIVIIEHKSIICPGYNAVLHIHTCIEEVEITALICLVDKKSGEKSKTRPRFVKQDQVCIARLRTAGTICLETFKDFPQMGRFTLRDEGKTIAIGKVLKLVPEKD
Protein cereblon/Eukaryotic peptide chain release factor GTP-binding subunit ERF3A, sequence (Q96SW2 whole entry, looked up): as the sequence (Q96SW2 whole entry, looked up, other chains not shown) above

Compound | IC50 (KARPAS-299; Homo sapiens, KARPAS-299, 72 h) | IC50 (Raji) | Activity [4] | IC50 (MOLM-13 [5]) | IC50 (OCI-AML-3; Homo sapiens, OCI-AML-3, 72 h) | viability at 0.1 µM (MOLM-13 [7]) | further results
Cc1sc2c(c1C)C(c1ccc(Cl)cc1)=N[C@@H](CC(=O)NCCNc1cccc3c1C(=O)N(C1CCC(=O)NC1=O)C3=O)c1nnc(C)n1-2 (some centres undefined) | 820 nM | 183 nM | Active | 150 nM | 325 nM |  | fold change (FC) [1]: 7; IC50 (SU-DHL-1): 195 nM; Activity [2]: Active; Activity [3]: Active; IC50 (Daudi): 266 nM; Activity (A9): No effect; IC50 (KARPAS-299; karpas-299): 913 nM; IC50 (NB-4): 92.6 nM; Activity (NB-4; time 3.0 day): Active; IC50 (THP-1): 553 nM; Activity (THP-1; time 3.0 day): Active; IC50 (HL-60): 343 nM; Activity (HL-60; time 3.0 day): Active; Activity (MOLM-13 [5]; time 3.0 day): Active; IC50 (OCI-AML-3; oci-aml-3): 381 nM; Activity (OCI-AML-3; time 3.0 day): Active
Cc1sc2c(c1C)C(c1ccc(Cl)cc1)=N[C@@H](CC(=O)N1CCN(CC3CN(c4ccc5c(c4)C(=O)N(C4CCC(=O)NC4=O)C5=O)C3)CC1)c1nnc(C)n1-2 (some centres undefined) | 330 nM | 82.1 nM | Active | 13.5 nM | 27.7 nM | 8.1% | IC50 (SU-DHL-1): 35 nM; Activity [6]: Active; IC50 (Daudi): 178 nM; Activity [8]: Active; IC50 (NB-4): 6.03 nM; IC50 (THP-1): 32 nM; IC50 (HL-60): 19.1 nM
Cc1sc2c(c1C)C(c1ccc(Cl)cc1)=N[C@@H](CC(=O)N1CCN(C3CCN(c4ccc5c(c4)C(=O)N(C4CCC(=O)NC4=O)C5=O)CC3)CC1)c1nnc(C)n1-2 (some centres undefined) | 20.6 nM | 13.9 nM | Active | 6.07 nM | 17.3 nM | 6.8% | Activity [9]: Toxic; IC50 (SU-DHL-1): 11.1 nM; Activity [10]: Toxic; Activity [6]: Active; IC50 (Daudi): 10.2 nM; Activity [8]: Active; IC50 (NB-4): 4.26 nM; IC50 (THP-1): 16.4 nM; IC50 (HL-60): 7.38 nM
Cc1sc2c(c1C)C(c1ccc(Cl)cc1)=N[C@@H](CC(=O)N1CCC(N3CCN(c4cccc5c4C(=O)N(C4CCC(=O)NC4=O)C5=O)CC3)CC1)c1nnc(C)n1-2 (some centres undefined) |  |  |  |  |  | 72% | 
O=C1CCC(N2Cc3cc(CNC(=O)C(F)(F)c4ccc(Cl)cc4)ccc3C2=O)C(=O)N1 (centres undefined) | > 10000 nM | > 10000 nM | Active | 181 nM | > 10000 nM |  | 
Cc1sc2c(c1C)C(c1ccc(Cl)cc1)=N[C@@H](CC(=O)N1CCC(CN3CCN(c4ccc5c(c4)C(=O)N(C4CCC(=O)NC4=O)C5=O)CC3)CC1)c1nnc(C)n1-2 (some centres undefined) |  |  |  | 61.4 nM |  | 15.5% | 
Cc1sc2c(c1C)C(c1ccc(Cl)cc1)=N[C@@H](CC(=O)N1CC(CN3CCN(c4ccc5c(c4)C(=O)N(C4CCC(=O)NC4=O)C5=O)CC3)C1)c1nnc(C)n1-2 (some centres undefined) |  |  | Active | 33.8 nM |  | 7.45% | 
Cc1sc2c(c1C)C(c1ccc(Cl)cc1)=N[C@@H](CC(=O)N1CCN(C3CN(c4ccc5c(c4)C(=O)N(C4CCC(=O)NC4=O)C5=O)C3)CC1)c1nnc(C)n1-2 (some centres undefined) |  |  | Active | 18.7 nM |  | 7.24% | 
Cc1sc2c(c1C)C(c1ccc(Cl)cc1)=N[C@@H](CC(=O)N1CCC(N3CCN(c4ccc5c(c4)C(=O)N(C4CCC(=O)NC4=O)C5=O)CC3)CC1)c1nnc(C)n1-2 (some centres undefined) |  |  |  | 25.4 nM |  | 7.55% | 
Cc1sc2c(c1C)C(c1ccc(Cl)cc1)=N[C@@H](CC(=O)N1CC(CN3CCN(c4cccc5c4C(=O)N(C4CCC(=O)NC4=O)C5=O)CC3)C1)c1nnc(C)n1-2 (some centres undefined) |  |  |  |  |  | 110% | 
Cc1sc2c(c1C)C(c1ccc(Cl)cc1)=N[C@@H](CC(=O)N1CC(N3CCN(c4ccc5c(c4)C(=O)N(C4CCC(=O)NC4=O)C5=O)CC3)C1)c1nnc(C)n1-2 (some centres undefined) |  |  |  | 74.2 nM |  | 9.49% | 
Cc1sc2c(c1C)C(c1ccc(Cl)cc1)=N[C@@H](CC(=O)N1CC(N3CCN(c4cccc5c4C(=O)N(C4CCC(=O)NC4=O)C5=O)CC3)C1)c1nnc(C)n1-2 (some centres undefined) |  |  |  |  |  | 124% | 
Cc1sc2c(c1C)C(c1ccc(Cl)cc1)=N[C@@H](CC(=O)NCCCCNc1cccc3c1C(=O)N(C1CCC(=O)NC1=O)C3=O)c1nnc(C)n1-2 (some centres undefined) | 7720 nM | 936 nM |  | 422 nM | 1210 nM |  | 
Cc1sc2c(c1C)C(c1ccc(Cl)cc1)=N[C@@H](CC(=O)N1CCC(CN3CCN(c4cccc5c4C(=O)N(C4CCC(=O)NC4=O)C5=O)CC3)CC1)c1nnc(C)n1-2 (some centres undefined) |  |  |  |  |  | 79.6% | 
Cc1sc2c(c1C)C(c1ccc(Cl)cc1)=N[C@@H](CC(=O)N1CCN(C3CCN(c4cccc5c4C(=O)N(C4CCC(=O)NC4=O)C5=O)CC3)CC1)c1nnc(C)n1-2 (some centres undefined) |  |  | Active | 37.2 nM |  | 19.3% | 
Cc1sc2c(c1C)C(c1ccc(Cl)cc1)=N[C@@H](CC(=O)N1CCN(CC3CN(c4cccc5c4C(=O)N(C4CCC(=O)NC4=O)C5=O)C3)CC1)c1nnc(C)n1-2 (some centres undefined) | 3360 nM | 605 nM | Active | 14.9 nM | 75.3 nM | 11.7% | IC50 (SU-DHL-1): 117 nM; Activity [6]: Active; IC50 (Daudi): 257 nM; Activity [8]: Active; IC50 (NB-4): 19.2 nM; IC50 (THP-1): 103 nM; IC50 (HL-60): 63.7 nM
Cc1sc2c(c1C)C(c1ccc(Cl)cc1)=N[C@@H](CC(=O)N1CCN(C3CN(c4cccc5c4C(=O)N(C4CCC(=O)NC4=O)C5=O)C3)CC1)c1nnc(C)n1-2 (some centres undefined) |  |  |  |  |  | 66.2% | 
Cc1sc2c(c1C)C(c1ccc(Cl)cc1)=N[C@@H](CC(=O)N1CCN(CC3CCN(c4cccc5c4C(=O)N(C4CCC(=O)NC4=O)C5=O)CC3)CC1)c1nnc(C)n1-2 (some centres undefined) |  |  | Active | 46.6 nM |  | 18% | 
